Structures can show the parent of a compound that is named as a salt.

Results on 54 compounds are retold here after paper PMC7489219 (Molecular Brain, 2020).

This test deals with T1, primary mouse cortical neurons.
T1 construct: primary cortical neurons, DIV 10
In words: cells. Set-up: Protection from NMDA-induced (30 uM, 10 min) neuronal death; Hoechst nuclear morphology by automated microscopy. As to conditions: Cortical neurone, 20 h, read-out: % inhibition, inhibition of NMDA-induced cell death (protection score), 30 min pre-treatment. Here is the method:
On DIV 10, compounds were applied to the cells reaching an end concentration of 10 μM. Cells were incubated for 30 min at 37 °C, 5% CO2 before adding NMDA (30 μM). Cells were incubated for another 10 min in the incubator, then washed twice with defined minimal medium containing 10 μM of the respective compound and incubated for an additional 20 h before readout. Untreated (no NMDA) and NMDA-only stimulated wells were treated with 0.1% DMSO. […] After 15 min of incubation at room temperature, cells were washed twice with phosphate buffered saline. […] Dead neurons were identified by amorphous or shrunken nuclei using CellProfiler and CellProfiler Analyst software. For all cell death analyses the experimental unit (N) is defined as an independent experiment using an independent neuronal preparation. For each independent experiment, data from 3 replicate wells (i.e., from 36 images), representing an average of 3000 cells was analyzed per condition. The survival rate S was calculated by dividing the number of living cells by the total number of cells. The survival rate was then used to calculate the protection score according to Scompound−Svehicle/Suntreated−Svehicle×100=%protection , where ‘compound’ refers to compound + NMDA treatment, ‘vehicle’ refers to vehicle + NMDA treatment, and ‘untreated’ refers to DMSO control. […] As a proof of principle, we next used our assay to screen two commercially available drug libraries. In these screens, primary cortical cells were incubated with test compounds at 10 μM concentration for 30 min before addition of 30 μM NMDA. After 10 min NMDA treatment, cells were washed with fresh medium and kept in the presence of test compounds for 20 h until assessment of cell viability. […] This library covers structurally diverse drugs from several fields such as oncology, cardiology, immunology, and neurology/psychiatry.

As to `NCC(=O)CCC(=O)O` [5-Aminolevulinic acid hydrochloride], the inhibition at 10 µM is -1.27%.
The figure for `CN(C)[C@@H](CCOc1cccc2ccccc12)c1ccccc1` [Dapoxetine hydrochloride (Priligy)] is -1.89%; for `CCOC(=O)N1CCC(=C2c3ccc(Cl)cc3CCc3cccnc32)CC1` [Loratadine] it is -11.1%.
With `C=C1c2cccc(O)c2C(O)=C2C(=O)[C@]3(O)C(O)=C(C(N)=O)C(=O)[C@@H](N(C)C)[C@@H]3[C@@H](O)[C@H]12` [Methacycline hydrochloride (Physiomycine)], the inhibition at 10 µM stood at 13.5%.
For `COc1ccc(CCC(=O)c2c(O)cc(O[C@@H]3O[C@H](CO)[C@@H](O)[C@H](O)[C@H]3O[C@@H]3O[C@@H](C)[C@H](O)[C@@H](O)[C@H]3O)cc2O)cc1O` [Neohesperidin dihydrochalcone (Nhdc)] the value was -3.39%; for `Nc1ccc(O)c(C(=O)O)c1` [Mesalamine (Lialda)], 21.8%.
As for `COc1cc(/C=C/C(=O)O)ccc1O` [Fumalic acid (Ferulic acid)], the inhibition at 10 µM is -0.686%.
Consider `C[C@H](CCC(=O)O)[C@H]1CC[C@H]2[C@@H]3[C@H](O)C[C@@H]4C[C@H](O)CC[C@]4(C)[C@H]3CC[C@]12C` [Chenodeoxycholic acid], for which the inhibition at 10 µM is -2.92%.
In the case of `CC(=O)SCC(Cc1ccccc1)C(=O)NCC(=O)OCc1ccccc1` (stereo not drawn) [Racecadotril (Acetorphan)], the inhibition at 10 µM was -7.37%.
For `NC(=O)NO` [Hydroxyurea (Cytodrox)] the value was -2.47%.
With `CN(C)C(=O)Oc1cccc([N+](C)(C)C)c1` [Neostigmine bromide (Prostigmin)], the inhibition at 10 µM was -0.504%.
The figure for `O=C1Cc2cc(CCN3CCN(c4nsc5ccccc45)CC3)c(Cl)cc2N1` [Ziprasidone hydrochloride] is 8.38%; for `CNC(=O)c1cc(Oc2ccc(NC(=O)Nc3ccc(Cl)c(C(F)(F)F)c3)cc2)ccn1` [Sorafenib (Nexavar)] it is -5.2%; for `CC(=O)O[C@H]1C(=O)[C@@]2(C)[C@H]([C@H](OC(=O)c3ccccc3)[C@]3(O)C[C@H](OC(=O)[C@H](O)[C@@H](NC(=O)c4ccccc4)c4ccccc4)C(C)=C1C3(C)C)[C@]1(OC(C)=O)CO[C@@H]1C[C@@H]2O` [Paclitaxel (Taxol)] it is -12.8%.
The figure for `CCCN[C@H]1CCc2nc(N)sc2C1` [Pramipexole dihydrochloride monohydrate] is -0.655%.
For `CN(C)Cc1c[nH]c2ccccc12` [Gramine] the value was -3.83%.
As for `Cc1c(N)nc([C@H](CC(N)=O)NC[C@H](N)C(N)=O)nc1C(=O)N[C@H](C(=O)N[C@H](C)[C@@H](O)[C@H](C)C(=O)N[C@H](C(=O)NCCc1nc(-c2nc(C(=O)NCCC[S+](C)C)cs2)cs1)[C@@H](C)O)[C@@H](O[C@@H]1O[C@@H](CO)[C@@H](O)[C@H](O)[C@@H]1O[C@H]1O[C@H](CO)[C@@H](O)[C@H](OC(N)=O)[C@@H]1O)c1cnc[nH]1` [Bleomycin sulfate], the inhibition at 10 µM was -2.58%.
Take `COc1cc([C@@H]2c3cc4c(cc3[C@@H](O[C@@H]3O[C@@H]5CO[C@@H](C)O[C@H]5[C@H](O)[C@H]3O)[C@H]3COC(=O)[C@H]23)OCO4)cc(OC)c1O` [Etoposide (VP-16)]: the inhibition at 10 µM is -11.8%.
The figure for `CN(C)CCOc1ccc(/C(=C(/CCCl)c2ccccc2)c2ccccc2)cc1` [Toremifene Citrate (Fareston, Acapodene)] is -2.81%; for `C=C1[C@H](CO)[C@@H](O)C[C@@H]1n1cnc2c(=O)[nH]c(N)nc21` [Entecavir hydrate] it is 3.22%; for `OCc1ccccc1O[C@@H]1O[C@H](CO)[C@@H](O)[C@H](O)[C@H]1O` [Salicin (Salicoside, Salicine)] it is -2.7%.
For `CN/C(=N\CCSCc1nc[nH]c1C)NC#N` [Cimetidine (Tagamet)] the value was -0.847%; for `CCCCN1CCCCC1C(=O)Nc1c(C)cccc1C` (stereo not drawn) [Bupivacaine hydrochloride (Marcain)], -1.92%.
Take `NCCCCCC(=O)O` [Aminocaproic acid (Amicar)]: the inhibition at 10 µM is 25.5%.
The figure for `COc1cc2c(cc1OC)C(=O)C(CC1CCN(Cc3ccccc3)CC1)C2` (stereo not drawn) [Donepezil HCl (Aricept)] is -8.98%; for `O[C@@H](CNC[C@H](O)[C@H]1CCc2cc(F)ccc2O1)[C@@H]1CCc2cc(F)ccc2O1` [Nebivolol (Bystolic)] it is -2.64%; for `CC1COc2c(N3CCN(C)CC3)c(F)cc3c(=O)c(C(=O)O)cn1c23` (stereo not drawn) [Ofloxacin (Floxin)] it is -0.567%.
For `Nc1nc(=O)n([C@@H]2CS[C@H](CO)O2)cc1F` [Emtricitabine (Emtriva)], the inhibition at 10 µM stood at 14.4%.
In the case of `COc1ccc([C@@H]2CC(=O)c3c(O)cc(O[C@@H]4O[C@H](CO[C@@H]5O[C@@H](C)[C@H](O)[C@@H](O)[C@H]5O)[C@@H](O)[C@H](O)[C@H]4O)cc3O2)cc1OC` [Methyl-Hesperidin], the inhibition at 10 µM was -2.33%.
Take `N=c1nc(N2CCCCC2)cc(N)n1O` [Minoxidil]: the inhibition at 10 µM was -1.14%.
The figure for `CC[N+](CC)(CC)CCOc1cccc(OCC[N+](CC)(CC)CC)c1OCC[N+](CC)(CC)CC` [Gallamine triethiodide (Flaxedil)] is -8.46%; for `CC[C@H]1OC(=O)[C@H](C)[C@@H](O[C@H]2C[C@@](C)(OC)[C@@H](O)[C@H](C)O2)[C@H](C)[C@@H](O[C@@H]2O[C@H](C)C[C@H](N(C)C)[C@H]2O)[C@](C)(O)C[C@@H](C)C(=O)[C@H](C)[C@@H](O)[C@]1(C)O` [Erythromycin (E-Mycin)] it is 29.4%; for `CCCCNc1ccc(C(=O)OCCN(C)C)cc1` [Tetracaine hydrochloride (Pontocaine)] it is -0.577%.
The figure for `O=C(O)/C=C/c1ccc(Cn2ccnc2)cc1` [Ozagrel] is -9.99%.
For `CC(C)n1c(/C=C/[C@H](O)C[C@H](O)CC(=O)O)c(-c2ccc(F)cc2)c2ccccc21` (racemic) [Fluvastatin sodium (Lescol)] the value was -2.48%; for `O=c1n(CCCN2CCN(c3cccc(Cl)c3)CC2)nc2ccccn12` [Trazodone hydrochloride (Desyrel)], -1.4%; for `CN1c2ccccc2C(=O)N2CCc3c([nH]c4ccccc34)[C@H]21` [Evodiamine (Isoevodiamine)], 0.0207%.
Take `O=c1[nH]cnc2c1ncn2[C@H]1CC[C@@H](CO)O1` [Didanosine (Videx)]: the inhibition at 10 µM worked out at 11.6%.
For `O=C(N[C@H](CO)[C@H](O)c1ccc([N+](=O)[O-])cc1)C(Cl)Cl` [Chloramphenicol (Chloromycetin)] the value was 0.272%.
For `COc1cc(CNC(=O)CCCC/C=C/C(C)C)ccc1O` [Capsaicin] the value was -2.28%; for `Nc1ccn([C@@H]2O[C@H](CO)[C@@H](O)[C@@H]2O)c(=O)n1` [Cytarabine], 38.3%; for `Cc1nnc(C(C)C)n1[C@@H]1C[C@H]2CC[C@@H](C1)N2CC[C@H](NC(=O)C1CCC(F)(F)CC1)c1ccccc1` [Maraviroc], 2.4%.
The figure for `C[C@@H]1CC[C@H]2[C@@H](C)C(O)O[C@@H]3O[C@@]4(C)CC[C@@H]1[C@]32OO4` (stereo partly drawn) [Dihydroartemisinin (DHA)] is -4.3%; for `CCCCC(=O)N(Cc1ccc(-c2ccccc2-c2nn[nH]n2)cc1)[C@H](C(=O)O)C(C)C` [Valsartan (Diovan)] it is -0.714%; for `O=C(c1ccc(OCCN2CCCCC2)cc1)c1c(-c2ccc(O)cc2)sc2cc(O)ccc12` [Evista (Raloxifene Hydrochloride)] it is -19.3%.
Consider `NC(=O)c1cccnc1` [Nicotinamide (Niacinamide)], for which the inhibition at 10 µM was -2.77%.
For `Cc1coc2c1C(=O)C(=O)c1c-2ccc2c(C)cccc12` [Tanshinone I] the value was -5.27%.
The figure for `COC[C@@H](c1ccc(C(F)(F)F)cc1)N1CCN(C2(C)CCN(C(=O)c3c(C)ncnc3C)CC2)C[C@@H]1C` [Vicriviroc Malate] is 0.113%.
With `CC(C[N+](C)(C)C)OC(N)=O` (stereo not drawn) [Bethanechol chloride], the inhibition at 10 µM was -1.35%.
For `NS(=O)(=O)c1cc(C(=O)O)c(NCc2ccco2)cc1Cl` [Furosemide (Lasix)], the inhibition at 10 µM is 32.1%.
Turning to `O=C(O)C1=C[C@@H](O)[C@@H](O)[C@H](O)C1` [Shikimic acid (Shikimate)], the inhibition at 10 µM is 0.278%.
For `CC1=C(/C=C/C(C)=C/C=C/C(C)=C\C(=O)O)C(C)(C)CCC1` [Isotretinoin], the inhibition at 10 µM was -1.4%.
On to `COc1c(C)c2c(c(O)c1C/C=C(\C)CCC(=O)O)C(=O)OC2` [Mycophenolic (Mycophenolate)], for which the inhibition at 10 µM is -10.2%.
`O=C1Nc2ccccc2/C1=C1/Nc2ccccc2C1=O` [Indirubin]: the inhibition at 10 µM is 8.04%.

The term inhibition denotes the drop in the measured response relative to a control, in per cent.
